ChEMBL document CHEMBL4507298 (2021)

Key:
[1] = molecular target: Ankyrin repeat and protein kinase domain-containing protein 1 (Homo sapiens) (UniProt Q8NFD2); conditions: Compound concentration 1000.0 nM
[2] = tested on: Proto-oncogene tyrosine-protein kinase receptor Ret (Homo sapiens), P07949 [V804L]; conditions: Compound concentration 1000.0 nM
[3] = molecular target: Phosphatidylinositol 4-phosphate 5-kinase type-1 gamma (Homo sapiens) (UniProt O60331); conditions: Compound concentration 1000.0 nM
[4] = molecular target: High affinity choline transporter 1 (Homo sapiens) (UniProt Q9GZV3); assay: Choline transporter (h) (CHT1) CEREP ligand profiling; conditions: Compound concentration 10.0 uM
[5] = molecular target: Receptor tyrosine-protein kinase erbB-3 (Homo sapiens) (UniProt P21860); conditions: Compound concentration 1000.0 nM
Chain of Receptor tyrosine-protein kinase erbB-3 (Homo sapiens) (P21860 whole entry): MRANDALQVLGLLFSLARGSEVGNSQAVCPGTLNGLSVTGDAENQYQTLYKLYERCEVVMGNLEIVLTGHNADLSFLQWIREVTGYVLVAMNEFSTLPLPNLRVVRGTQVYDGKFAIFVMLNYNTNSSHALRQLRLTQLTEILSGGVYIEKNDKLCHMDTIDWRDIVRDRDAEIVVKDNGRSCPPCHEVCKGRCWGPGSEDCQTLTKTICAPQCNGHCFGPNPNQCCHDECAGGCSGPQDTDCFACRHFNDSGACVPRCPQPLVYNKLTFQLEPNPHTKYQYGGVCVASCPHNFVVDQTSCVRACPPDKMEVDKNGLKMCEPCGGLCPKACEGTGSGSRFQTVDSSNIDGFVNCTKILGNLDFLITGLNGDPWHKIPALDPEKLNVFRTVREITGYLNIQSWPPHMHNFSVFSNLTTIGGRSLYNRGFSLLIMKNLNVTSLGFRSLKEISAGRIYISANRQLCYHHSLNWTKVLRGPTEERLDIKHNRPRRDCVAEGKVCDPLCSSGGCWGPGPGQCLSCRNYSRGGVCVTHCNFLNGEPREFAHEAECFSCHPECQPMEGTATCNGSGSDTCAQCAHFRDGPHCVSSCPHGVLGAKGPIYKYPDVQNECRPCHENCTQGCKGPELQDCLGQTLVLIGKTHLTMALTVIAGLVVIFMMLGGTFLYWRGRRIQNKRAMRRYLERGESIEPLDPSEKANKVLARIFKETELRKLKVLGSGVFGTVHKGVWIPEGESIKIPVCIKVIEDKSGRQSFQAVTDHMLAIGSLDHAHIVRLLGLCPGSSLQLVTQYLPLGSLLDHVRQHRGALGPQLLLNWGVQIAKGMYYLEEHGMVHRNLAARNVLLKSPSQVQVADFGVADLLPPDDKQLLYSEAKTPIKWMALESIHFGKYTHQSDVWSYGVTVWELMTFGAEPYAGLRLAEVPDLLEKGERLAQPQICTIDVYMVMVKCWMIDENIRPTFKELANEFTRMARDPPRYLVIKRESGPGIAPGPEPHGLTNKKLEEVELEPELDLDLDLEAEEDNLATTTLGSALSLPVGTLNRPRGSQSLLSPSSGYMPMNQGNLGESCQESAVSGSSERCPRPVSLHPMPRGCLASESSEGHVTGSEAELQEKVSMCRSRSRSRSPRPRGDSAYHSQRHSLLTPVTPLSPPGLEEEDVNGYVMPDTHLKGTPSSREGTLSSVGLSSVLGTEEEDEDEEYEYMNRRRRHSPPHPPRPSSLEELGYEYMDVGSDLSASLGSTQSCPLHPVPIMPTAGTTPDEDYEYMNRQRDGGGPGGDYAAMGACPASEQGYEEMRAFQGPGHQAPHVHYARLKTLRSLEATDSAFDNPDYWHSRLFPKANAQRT

[6] = molecular target: Tyrosine-protein kinase Fer (Homo sapiens) (UniProt P16591); conditions: Compound concentration 1000.0 nM
Chain of Tyrosine-protein kinase Fer (Homo sapiens) (P16591 whole entry, looked up): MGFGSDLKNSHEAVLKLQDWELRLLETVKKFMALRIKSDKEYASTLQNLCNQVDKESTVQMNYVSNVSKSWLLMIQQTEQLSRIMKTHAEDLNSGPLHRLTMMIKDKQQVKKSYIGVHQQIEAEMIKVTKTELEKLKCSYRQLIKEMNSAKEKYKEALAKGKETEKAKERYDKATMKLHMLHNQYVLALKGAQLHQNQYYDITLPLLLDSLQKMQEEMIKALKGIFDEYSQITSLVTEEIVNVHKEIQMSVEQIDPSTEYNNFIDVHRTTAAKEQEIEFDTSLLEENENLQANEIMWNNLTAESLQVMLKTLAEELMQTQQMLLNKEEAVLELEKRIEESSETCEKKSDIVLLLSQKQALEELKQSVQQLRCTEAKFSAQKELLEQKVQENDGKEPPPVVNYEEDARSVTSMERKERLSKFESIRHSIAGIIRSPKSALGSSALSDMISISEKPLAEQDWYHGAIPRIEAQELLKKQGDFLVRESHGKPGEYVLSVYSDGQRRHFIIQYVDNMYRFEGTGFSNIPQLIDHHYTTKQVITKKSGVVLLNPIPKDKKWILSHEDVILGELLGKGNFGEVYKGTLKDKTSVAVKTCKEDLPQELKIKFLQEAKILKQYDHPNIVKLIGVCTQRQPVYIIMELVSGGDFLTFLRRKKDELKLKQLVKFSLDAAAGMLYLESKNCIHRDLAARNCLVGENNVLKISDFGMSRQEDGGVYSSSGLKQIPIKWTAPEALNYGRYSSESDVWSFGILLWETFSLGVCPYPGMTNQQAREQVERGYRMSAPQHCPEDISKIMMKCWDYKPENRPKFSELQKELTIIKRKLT

[7] = molecular target: 5-hydroxytryptamine receptor 1B (Homo sapiens) (UniProt P28222); assay: 5-HT1B CEREP ligand profiling; conditions: Compound concentration 10.0 uM
[8] = molecular target: Serine/threonine-protein kinase 33 (Homo sapiens) (UniProt Q9BYT3); conditions: Compound concentration 1000.0 nM
[9] = molecular target: Serine/threonine-protein kinase RIO3 (Homo sapiens) (UniProt O14730); conditions: Compound concentration 1000.0 nM
[10] = molecular target: SRSF protein kinase 1 (Homo sapiens) (UniProt Q96SB4); conditions: Compound concentration 1000.0 nM
Chain of SRSF protein kinase 1 (Homo sapiens) (Q96SB4 whole entry): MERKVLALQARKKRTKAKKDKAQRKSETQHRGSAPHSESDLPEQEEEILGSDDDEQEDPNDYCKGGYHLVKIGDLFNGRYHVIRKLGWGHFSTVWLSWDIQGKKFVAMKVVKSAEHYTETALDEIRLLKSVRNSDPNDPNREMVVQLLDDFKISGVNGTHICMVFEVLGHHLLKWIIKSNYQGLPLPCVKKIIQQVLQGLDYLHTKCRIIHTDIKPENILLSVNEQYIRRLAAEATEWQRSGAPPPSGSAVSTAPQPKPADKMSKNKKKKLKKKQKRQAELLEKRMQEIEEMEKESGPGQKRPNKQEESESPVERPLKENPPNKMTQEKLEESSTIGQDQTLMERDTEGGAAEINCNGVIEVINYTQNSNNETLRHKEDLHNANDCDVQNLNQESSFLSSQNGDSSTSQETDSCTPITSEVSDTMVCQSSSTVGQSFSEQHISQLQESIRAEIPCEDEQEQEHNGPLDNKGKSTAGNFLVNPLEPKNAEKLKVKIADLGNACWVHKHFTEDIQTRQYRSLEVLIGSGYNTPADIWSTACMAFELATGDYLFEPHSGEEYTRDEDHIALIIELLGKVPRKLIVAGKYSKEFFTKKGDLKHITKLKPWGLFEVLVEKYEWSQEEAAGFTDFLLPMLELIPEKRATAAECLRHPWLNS

[11] = molecular target: Histamine H4 receptor (Homo sapiens, UniProt Q9H3N8); assay: H4 (h) CEREP ligand profiling; conditions: Compound concentration 10.0 uM
[12] = molecular target: Mitogen-activated protein kinase 10 (Homo sapiens) (UniProt P53779); conditions: Compound concentration 1000.0 nM
[13] = molecular target: MAP kinase-activated protein kinase 5 (Homo sapiens) (UniProt Q8IW41); conditions: Compound concentration 1000.0 nM
Chain of MAP kinase-activated protein kinase 5 (Homo sapiens) (Q8IW41 whole entry): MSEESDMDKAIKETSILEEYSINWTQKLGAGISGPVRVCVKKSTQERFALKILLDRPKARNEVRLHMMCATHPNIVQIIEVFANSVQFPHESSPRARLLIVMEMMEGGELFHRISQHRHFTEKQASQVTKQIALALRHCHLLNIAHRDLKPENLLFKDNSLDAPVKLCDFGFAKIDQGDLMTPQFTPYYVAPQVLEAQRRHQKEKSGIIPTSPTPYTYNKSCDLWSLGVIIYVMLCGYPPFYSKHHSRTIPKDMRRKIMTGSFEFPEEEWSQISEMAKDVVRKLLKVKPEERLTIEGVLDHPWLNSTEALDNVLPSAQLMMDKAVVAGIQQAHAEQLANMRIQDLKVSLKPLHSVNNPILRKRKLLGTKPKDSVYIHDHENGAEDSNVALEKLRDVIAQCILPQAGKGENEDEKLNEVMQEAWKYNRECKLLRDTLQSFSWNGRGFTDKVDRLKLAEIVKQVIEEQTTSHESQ

[14] = molecular target: GABA-A receptor; anion channel (Homo sapiens) (UniProt P14867+P47870+P18507+P28472+P48169+Q99928+Q9UN88+P34903+O00591+O14764+Q8N1C3+P18505+P78334+P47869+P31644+Q16445); assay: GABAA CEREP ligand profiling; format: protein-complex assay; conditions: Compound concentration 10.0 uM
[15] = molecular target: Casein kinase I isoform epsilon (Homo sapiens) (UniProt P49674); conditions: Compound concentration 1000.0 nM
[16] = molecular target: ALK tyrosine kinase receptor (Homo sapiens) (UniProt Q9UM73); conditions: Compound concentration 1000.0 nM
[17] = molecular target: Phosphodiesterase 4 (Homo sapiens) (UniProt P27815+Q08499+Q07343+Q08493); assay: PDE4 (h) CEREP ligand profiling; format: protein assay; conditions: Compound concentration 10.0 uM
[18] = tested on: Fibroblast growth factor receptor 3 (Homo sapiens), P22607 [G697C]; conditions: Compound concentration 1000.0 nM
[19] = molecular target: Serine/threonine-protein kinase BRSK1 (Homo sapiens) (UniProt Q8TDC3); conditions: Compound concentration 1000.0 nM
[20] = molecular target: Dual specificity mitogen-activated protein kinase kinase 3 (Homo sapiens) (UniProt P46734); conditions: Compound concentration 1000.0 nM
[21] = molecular target: Calcium/calmodulin-dependent protein kinase kinase 1 (Homo sapiens) (UniProt Q8N5S9); conditions: Compound concentration 1000.0 nM
[22] = molecular target: Ribosomal protein S6 kinase alpha-6 (Homo sapiens) (UniProt Q9UK32); conditions: Compound concentration 1000.0 nM
[23] = tested on: Hepatocyte growth factor receptor (Homo sapiens), P08581 [Y1235D]; conditions: Compound concentration 1000.0 nM
[24] = molecular target: Vascular endothelial growth factor receptor 1 (Homo sapiens) (UniProt P17948); assay: FLT-1 kinase (h) (VEGFR1) CEREP ligand profiling; conditions: Compound concentration 10.0 uM
[25] = molecular target: Myosin light chain kinase, smooth muscle (Homo sapiens) (UniProt Q15746); conditions: Compound concentration 1000.0 nM
[26] = molecular target: 5-hydroxytryptamine receptor 1D (Homo sapiens) (UniProt P28221); assay: 5-HT1D CEREP ligand profiling; conditions: Compound concentration 10.0 uM
Chain of 5-hydroxytryptamine receptor 1D (Homo sapiens) (P28221 whole entry): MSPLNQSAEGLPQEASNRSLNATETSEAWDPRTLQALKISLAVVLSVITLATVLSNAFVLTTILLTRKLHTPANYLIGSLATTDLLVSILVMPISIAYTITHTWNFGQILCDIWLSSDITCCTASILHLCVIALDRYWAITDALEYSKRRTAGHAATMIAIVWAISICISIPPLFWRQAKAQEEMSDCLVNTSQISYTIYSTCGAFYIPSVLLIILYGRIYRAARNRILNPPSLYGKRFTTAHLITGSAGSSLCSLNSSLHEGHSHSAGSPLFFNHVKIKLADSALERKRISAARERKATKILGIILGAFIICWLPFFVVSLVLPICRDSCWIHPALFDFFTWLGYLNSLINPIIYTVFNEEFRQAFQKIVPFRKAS

[27] = molecular target: cGMP-specific 3',5'-cyclic phosphodiesterase (Homo sapiens) (UniProt O76074); assay: PDE5 (h) CEREP ligand profiling; conditions: Compound concentration 10.0 uM
[28] = molecular target: Calcium/calmodulin-dependent protein kinase type IV (Homo sapiens) (UniProt Q16566); conditions: Compound concentration 1000.0 nM
[29] = molecular target: Urotensin-2 receptor (Homo sapiens) (UniProt Q9UKP6); assay: UT (h) CEREP ligand profiling; conditions: Compound concentration 10.0 uM
[30] = molecular target: Voltage-dependent N-type calcium channel subunit alpha-1B (Homo sapiens) (UniProt Q00975); assay: Ca2+ channel (N) CEREP ligand profiling; conditions: Compound concentration 10.0 uM
[31] = molecular target: Muscarinic acetylcholine receptor M3 (Homo sapiens) (UniProt P20309); assay: M3 (h) CEREP ligand profiling; conditions: Compound concentration 10.0 uM
Chain of Muscarinic acetylcholine receptor M3 (Homo sapiens) (P20309 whole entry, looked up): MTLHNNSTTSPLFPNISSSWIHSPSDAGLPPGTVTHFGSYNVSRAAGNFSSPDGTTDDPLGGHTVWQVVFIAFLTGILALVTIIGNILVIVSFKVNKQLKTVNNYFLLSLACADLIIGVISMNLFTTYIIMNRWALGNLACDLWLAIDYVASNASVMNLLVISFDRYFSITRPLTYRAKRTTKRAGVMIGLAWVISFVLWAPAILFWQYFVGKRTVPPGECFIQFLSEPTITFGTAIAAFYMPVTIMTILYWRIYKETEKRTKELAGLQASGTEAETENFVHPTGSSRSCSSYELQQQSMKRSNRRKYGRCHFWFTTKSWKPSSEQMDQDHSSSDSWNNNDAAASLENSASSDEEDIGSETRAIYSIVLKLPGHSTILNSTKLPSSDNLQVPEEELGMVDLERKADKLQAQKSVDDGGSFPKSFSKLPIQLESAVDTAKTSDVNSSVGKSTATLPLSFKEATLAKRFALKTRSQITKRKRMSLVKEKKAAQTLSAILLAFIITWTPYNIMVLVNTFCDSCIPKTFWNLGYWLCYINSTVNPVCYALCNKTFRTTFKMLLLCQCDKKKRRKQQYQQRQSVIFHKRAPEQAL

[32] = molecular target: Serine/threonine-protein kinase tousled-like 1 (Homo sapiens) (UniProt Q9UKI8); conditions: Compound concentration 1000.0 nM
Chain of Serine/threonine-protein kinase tousled-like 1 (Homo sapiens) (Q9UKI8 whole entry): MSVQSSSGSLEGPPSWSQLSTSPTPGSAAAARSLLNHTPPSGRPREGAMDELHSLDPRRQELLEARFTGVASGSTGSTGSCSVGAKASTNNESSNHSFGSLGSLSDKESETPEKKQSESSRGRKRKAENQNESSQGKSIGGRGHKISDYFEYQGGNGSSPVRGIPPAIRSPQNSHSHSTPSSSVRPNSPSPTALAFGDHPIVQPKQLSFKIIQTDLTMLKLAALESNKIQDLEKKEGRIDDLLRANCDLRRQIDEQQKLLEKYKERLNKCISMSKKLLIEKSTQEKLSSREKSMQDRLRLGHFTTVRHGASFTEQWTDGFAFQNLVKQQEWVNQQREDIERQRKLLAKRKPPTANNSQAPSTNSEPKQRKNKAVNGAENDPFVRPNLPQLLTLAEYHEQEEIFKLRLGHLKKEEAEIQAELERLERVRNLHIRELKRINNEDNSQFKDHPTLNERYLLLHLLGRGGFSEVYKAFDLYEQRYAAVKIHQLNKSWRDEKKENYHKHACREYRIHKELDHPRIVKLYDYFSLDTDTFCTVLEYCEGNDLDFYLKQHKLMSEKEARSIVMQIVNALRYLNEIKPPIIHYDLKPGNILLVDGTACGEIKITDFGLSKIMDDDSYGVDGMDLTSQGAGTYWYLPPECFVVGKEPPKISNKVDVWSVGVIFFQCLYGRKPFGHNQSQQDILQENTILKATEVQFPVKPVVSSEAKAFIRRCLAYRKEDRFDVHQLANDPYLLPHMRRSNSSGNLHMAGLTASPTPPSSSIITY

[33] = molecular target: Type-1 angiotensin II receptor (Homo sapiens) (UniProt P30556); assay: AT1 (h) CEREP ligand profiling; conditions: Compound concentration 10.0 uM
[34] = molecular target: cAMP-dependent protein kinase catalytic subunit PRKX (Homo sapiens) (UniProt P51817); conditions: Compound concentration 1000.0 nM

COc1ccc2cc(OCC3(C(=O)O)CN(C(=O)c4ccc(F)cc4)C3)ccc2c1 [PF-04418948]
inactive: residual activity [1] 86% | residual activity [2] 78% | residual activity [3] 84% | inhibition [4] 4% | residual activity [5] 89% | residual activity [6] 74% | inhibition [7] -7% | residual activity [8] 98% | residual activity [9] 97% | residual activity [10] 72% | inhibition [11] -4% | residual activity [12] 85% | residual activity [13] 76% | inhibition [14] 16% | residual activity [15] 94% | residual activity [16] 79% | inhibition [17] 8% | residual activity [18] 88% | residual activity [19] 85% | residual activity [20] 95% | residual activity [21] 91% | residual activity [22] 78% | residual activity [23] 91% | inhibition [24] 9% | residual activity [25] 84% | inhibition [26] -10% | inhibition [27] 6% | residual activity [28] 88% | inhibition [29] 14% | inhibition [30] -7% | inhibition [31] 1% | residual activity [32] 87% | inhibition [33] 1% | residual activity [34] 90%
